# According to BindingDB's records for doi:10.1016/j.bmcl.2009.05.071 (Astrazeneca, 2009):
# pIC50: −log10 of the molar value.
# Target: T1, Procathepsin L [114-333,T223A] (Homo sapiens, UniProt P07711, T223A)
# T1 construct: 114-333
# Assay: Cathepsin Inhibition Assay
# Details: pH 7; 37 °C
# Method: IC50 values for inhibition of Cathepsins were determined from dose dependent inhibition of cleavage of fluorogenic, AMC-tagged, peptide substrates.
# T1 sequence (P07711 114-333 T223A): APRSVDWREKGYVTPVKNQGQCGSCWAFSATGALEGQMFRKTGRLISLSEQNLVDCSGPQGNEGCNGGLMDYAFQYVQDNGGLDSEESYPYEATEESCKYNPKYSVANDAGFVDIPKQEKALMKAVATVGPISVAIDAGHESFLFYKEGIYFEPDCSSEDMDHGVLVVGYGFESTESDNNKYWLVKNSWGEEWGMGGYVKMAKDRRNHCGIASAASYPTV
smiles,measurement,value
"N#CCNC(=O)[C@H](Cc1cccc(Cl)c1)NC(=O)c1ccccc1 [Dipeptidyl nitrile inhibitor, 1]",pIC50,6.60
"Cn1nc(C(C)(C)C)cc1C(=O)N[C@@H](Cc1cccc(Cl)c1)C(=O)NCC#N [Dipeptidyl nitrile inhibitor, 25]",pIC50,7.89
